Results taken from US20230364172A1, “MODULATION OF SOLUBILITY, PALATABILITY, ABSORPTION, AND BIOAVAILABILITY OF MITRAGYNA SPECIOSA-DERIVED COMPOUNDS FOR ORAL AND BUCCAL DELIVERY” (Syncotrance, LLC, priority 2022, published 2023).
Values joined by “and” are separate entries in the source; they are usually repeats but may differ in a detail not shown here. Identical values can stand only once. Counter-ions that a name gives are not always drawn. Like-named read-outs stand apart in the source and are kept apart here.

Legend:
[1] = Premix vs water for taste masking of sports nutrition active ingredients (Example M); conditions: 1.5 g dose in Premix
Experimental: The supplements were suspended in a premix or water for reference. The active ingredients and their dosages were selected to simulate a sports nutrition drink prepared in a small blender (200 ml volume).
The panelists were asked to rate aversiveness/palatability and provide a brief description of off-flavors.

[2] = 1% w/v, 0.1 mM quinine hydrochloride solution; cited from earlier work
[3] = cited from earlier work
[4] = cited from earlier work; remark: listed apart in the source
[5] = rats; cited from earlier work
[6] = cited from earlier work; remark: listed apart in the source
[7] = Physicochemical properties of mitragynine (pKa, Log P, aqueous solubility), literature
Text: Mitragynine is an indole alkaloid comprising 66% of total alkaloids in extracts of Mitragyna speciosa leaves (Adkins, J. E., Boyer, E. W., McCurdy, C. R., 2011. Mitragyna speciosa, a psychoactive tree from Southeast Asia with opioid activity. Curr. Top. Med. Chem. 11, 1165-1175) (Ponglux, D., Wongseripipatana, S., Takayama, H., Kikuchi, M., Kurihara, M., Kitajima, M., Aimi, N., Sakai, S., 1994. A new indole alkaloid, 7 alpha-Hydroxy-7H-mitragynine, from Mitragyna speciosa in Thailand. Planta Med. 60, 580-581.). […] The compound is moderately stable at neutral pH (^˜3.5% degradation after 3 h) but degraded at pH 1.2 (by 26% degradation after 1-2 hr) (Manda, V. K., Avula, B., Ali, Z., Khan, I. A., Walker, L. A., Khan, S. I., 2014. Evaluation of in vitro absorption, distribution, metabolism, and excretion (ADME) properties of mitragynine, 7-hydroxymitragynine, and mitraphylline. Planta Med. 80, 568-576) (Ramanathan, S., Parthasarathy, S., Murugaiyah, V., Magosso, E., Tan, S. C., Mansor, S. M., 2015. Understanding the physicochemical properties of mitragynine, a principal alkaloid of Mitragyna speciosa, for preclinical evaluation. Molecules 20, 4915-4927). […]

[8] = Phase separation of Kratom/Premix emulsion by visual observation (Example C)

NCC(=O)[O-].NCC(=O)[O-].[Mg+2] [Magnesium Glycinate]
pH in Premix [1]: flavors. pH 10.3 caused

phosphatidic acid
bitterness-depressing effect due to adsorption [2]: 36.1%
bitterness-depressing effect due to suppression at the receptor site [2]: 45.6%
suppression of bitterness [2]: 81.7%

CC[C@@H]1CN2CCc3c([nH]c4cccc(OC)c34)[C@@H]2C[C@@H]1/C(=C\OC)C(=O)OC [Mitragynine]
bioavailability ([3]; oral administration in rats, calculated from other studies by Ya et al.): ~21%
pKa [4]: 8.1
solubility in aqueous media ([4]; pH 4): 130 μM and 51.8 μg/ml
solubility in a saliva type fluid ([4]; pH 6.5): 64.6±1.2 μcg/mL
solubility in aqueous media ([4]; pH 7): 83 μM and 33.1 μg/ml
% AUCbrain/AUCplasma [5]: 65.8±4.5%
degradation ([6]; neutral pH, after 3 h): ~3.5%
degradation ([6]; pH 1.2, after 1-2 hr): 26%
Biopharmaceutical Classification System (BCS) class [7]: Class II

Polysorbate 80
phase separation ([8]; Polysorbate 80 0.3% w/v final, added to Final Mix): separated
phase separation ([8]; Polysorbate 80 0.3% w/v final, added to liquid extract): separated
phase separation ([8]; Polysorbate 80 0.3% w/v final, added to premix): separated
phase separation ([8]; Polysorbate 80 0.5% w/v final, added to Final Mix): separated
phase separation ([8]; Polysorbate 80 0.5% w/v final, added to liquid extract): stable
phase separation ([8]; Polysorbate 80 0.5% w/v final, added to premix): separated
phase separation ([8]; Polysorbate 80 1% w/v final, added to Final Mix): separated
phase separation ([8]; Polysorbate 80 1% w/v final, added to liquid extract): stable
phase separation ([8]; Polysorbate 80 1% w/v final, added to premix): stable
phase separation ([8]; Polysorbate 80 1.5% w/v final, added to Final Mix): stable
phase separation ([8]; Polysorbate 80 1.5% w/v final, added to liquid extract): stable
phase separation ([8]; Polysorbate 80 1.5% w/v final, added to premix): stable

CC[C@@H]1CN2CCc3c([nH]c4cccc(OC)c34)[C@H]2C[C@@H]1/C(=C\OC)C(=O)OC (stereo in doubt) [mitragynine hydrochloride]
absolute oral bioavailability of mitragynine ([3]; rats, oral in comparison to intravenous administration): 17.0%
